Data published in patent US20060040884A1, “Antisense oligonucleotides directed to genes regulated by trapoxin-induced HDAC inhibition” (priority 2001, published 2006).
Square brackets hold non-standard residues; d marks the D form. Peptide text beside a SMILES is read from it. ξ: configuration not given here. Aoe(9ξ) = N[C@@H](CCCCCC(=O)C1CO1)C(=O)O; dPip = O=C(O)[C@H]1CCCCN1

System: H1299 cells
Experiment: Additional microarray analysis of RhoA, RhoB, RhoC expression in TPX-treated H1299 cells
Type: cell-based, human
Settings: H1299 cells treated with 30 nm TPX
Description: Microarray analysis is performed essentially as described in Welsh, J. B. Cancer Res. 61 5974-8 (2001). Poly (A)+ RNA is prepared from H1299 cells treated with TPX or DMSO for 0, 6, and 24 h. RNA is also prepared from 136 transformed cell lines. Labelled cDNA is prepared and hybridized to HU6800 or U95a oligonucleotide arrays (Affymetrix, Santa Clara, Calif.). The arrays are scanned on an Affymetrix confocal scanner and analyzed with GENECHIP 3.1 software (Affymetrix). T-test of the results is done.

## O=C(CCCCC[C@@H]1NC(=O)[C@H]2CCCCN2C(=O)[C@H](Cc2ccccc2)NC(=O)[C@H](Cc2ccccc2)NC1=O)C1CO1 (stereo partly drawn) [TPX, Trapoxin A] (cyclo(FF[dPip][Aoe(9ξ)]))
  Expression of RhoA (additional microarray analysis): unchanged
  Expression of RhoC (additional microarray analysis): unchanged
  RhoB upregulation (additional microarray analysis): approximately 8 fold
